Laboratory results reported in article PMC9143880, “Improving Antimicrobial Activity and Physico-Chemical Properties by Isosteric Replacement of 2-Aminothiazole with 2-Aminooxazole” (Pharmaceuticals, 2022).
pIC50: −log10 of the molar value. Converted amounts (≈) assume the structure as drawn. Where two headings read alike, the source gives them in different places.

Legend:
[1] = tested on: HepG2 cells; experiment: HepG2 cytotoxicity screening (CellTiter 96); format: cell-based, human
[2] = tested on: Aspergillus fumigatus ATCC 204305; experiment: Antifungal microdilution broth (EUCAST); details: Aspergillus fumigatus, ATCC204305, 24 h, read-out: MIC AF
[3] = RP-UHPLC lipophilicity parameter log k’w; format: physicochemical
Outline: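 Retention was measured once per eluent composition: subtype I at 40/45/50% and subtype II at 20/30/40% acetonitrile in water, isocratic RP-UHPLC. log k values from these runs gave the lipophilicity index log k’w.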

[4] = tested on: Aspergillus flavus CCM 8363; experiment: Antifungal microdilution broth (EUCAST); details: Aspergillus flavus, CCM8363, 24 h, read-out: MIC AFla
[5] = tested on: Trichophyton interdigitale CCM 8377 (ATCC 9533); experiment: Antifungal microdilution broth (EUCAST); details: Trichophyton interdigitale, 72 h, read-out: MIC TI
[6] = tested on: Candida krusei CCM 8271 (ATCC 6258); experiment: Antifungal microdilution broth (EUCAST); details: Pichia kudriavzevii, 24 h, read-out: MIC CK
[7] = tested on: Enterococcus faecalis CCM 4224 (ATCC 29212); experiment: Antibacterial microdilution broth (EUCAST); format: cell-based; details: Enterococcus faecalis
[8] = tested on: Lichtheimia corymbifera CCM 8077; experiment: Antifungal microdilution broth (EUCAST); details: Lichtheimia corymbifera, CCM8077, 24 h, read-out: MIC LC
[9] = tested on: Mtb H37Rv CNCTC My 331/88 (ATCC 27294); experiment: microbe, parasite or virus in culture; format: cell-based; details: Mycobacterium tuberculosis, read-out: MIC Mtb H37Rv
[10] = tested on: Candida parapsilosis CCM 8260 (ATCC 22019); experiment: Antifungal microdilution broth (EUCAST); details: Lodderomyces parapsilosis, 24 h, read-out: MIC CP
[11] = tested on: Staphylococcus aureus subsp. aureus (MRSA) CCM 4750 (ATCC 43300); experiment: Antibacterial microdilution broth (EUCAST); format: cell-based; details: Staphylococcus aureus
[12] = tested on: Staphylococcus aureus subsp. aureus CCM 4223 (ATCC 29213); experiment: Antibacterial microdilution broth (EUCAST); format: cell-based; details: Staphylococcus aureus
[13] = tested on: Escherichia coli CCM 3954 (ATCC 25922); experiment: Antibacterial microdilution broth (EUCAST); format: cell-based; details: Escherichia coli
[14] = tested on: Mtb IZAK (MDR clinical isolate); experiment: microbe, parasite or virus in culture; format: cell-based; details: Mycobacterium tuberculosis, read-out: MIC Mtb IZAK
[15] = tested on: Mycobacterium tuberculosis H37Ra ITM-M006710 (ATCC 9431); experiment: Antimycobacterial MIC, microdilution broth / Alamar Blue (resazurin); format: cell-based; details: Mycobacterium tuberculosis
[16] = tested on: M. avium DSM 44156 (ATCC 25291); experiment: Antimycobacterial MIC, microdilution broth / resazurin; format: cell-based, Mycobacterium avium; details: Mycobacterium avium; resazurin after 96 h; read-out: MIC M. avium
[17] = tested on: Staphylococcus epidermidis CCM 4418 (ATCC 12228); experiment: Antibacterial microdilution broth (EUCAST); format: cell-based; details: Staphylococcus epidermidis
[18] = tested on: M. smegmatis DSM 43465 (ATCC 607); experiment: Antimycobacterial MIC, microdilution broth / resazurin; format: cell-based; details: Mycolicibacterium smegmatis; resazurin after 48 h; read-out: MIC M. smegmatis
[19] = tested on: Mtb MATI (MDR clinical isolate); experiment: microbe, parasite or virus in culture; format: cell-based; details: Mycobacterium tuberculosis, read-out: MIC Mtb MATI
[20] = tested on: M. kansasii DSM 44162 (ATCC 12478); experiment: Antimycobacterial MIC, microdilution broth / resazurin; format: cell-based; details: Mycobacterium kansasii; resazurin after 96 h; read-out: MIC M. kansasii
[21] = tested on: Acinetobacter baumannii DSM 30007 (ATCC 19606); experiment: Antibacterial microdilution broth (EUCAST); format: cell-based; details: Acinetobacter baumannii
[22] = tested on: Candida albicans CCM 8320 (ATCC 24433); experiment: Antifungal microdilution broth (EUCAST); details: Candida albicans, 24 h, read-out: MIC CA
[23] = tested on: Pseudomonas aeruginosa CCM 3955 (ATCC 27853); experiment: Antibacterial microdilution broth (EUCAST); format: cell-based; details: Pseudomonas aeruginosa
[24] = tested on: Candida tropicalis CCM 8264 (ATCC 750); experiment: Antifungal microdilution broth (EUCAST); details: Candida tropicalis, 24 h, read-out: MIC CT
[25] = tested on: M. aurum DSM 43999 (ATCC 23366); experiment: Antimycobacterial MIC, microdilution broth / resazurin; format: cell-based; details: Mycolicibacterium aurum, read-out: MIC M. aurum
[26] = tested on: Mtb laboratory ID IZAK; format: cell-based, Mycobacterium tuberculosis; details: MDR strain IZAK, CLSI breakpoints 2020
[27] = tested on: Mtb laboratory ID MATI; format: cell-based, Mycobacterium tuberculosis; details: MDR strain MATI, CLSI breakpoints 2021
[28] = tested on: Klebsiella pneumoniae CCM 4415 (ATCC 10031); experiment: Antibacterial microdilution broth (EUCAST); format: cell-based; details: internal quality control, 24 h
[29] = 120 h, Middlebrook 7H9, resazurin after 120 h, read-out: Mtb H37Ra MIC
[30] = internal quality control, 95% growth inhibition, 530 nm, 24 h, read-out: MIC (spectrophotometric detection)
[31] = internal quality control, naked eye, 24 h, read-out: MIC (visual detection)

Cc1cc(C(=O)Nc2ncco2)cc(Cl)n1 [Compound 7b]
pIC50 ([1]; Homo sapiens, HepG2, 24 h, 24 h incubation, CellTiter 96, * above highest tested concentration, ** limited by insolubility in medium): 3.02
SI ([1]; SI = IC50 (µM) HepG2 / MICH37Ra (µM)): >58.3
MIC [2]: 250 µM (≈ 59.4 µg/mL)
log k’w ([3]; RP-UHPLC, acetonitrile/water, log k extrapolated to 0% acetonitrile): 1.430
logkw ([3]; experimental lipophilicity parameter): 1.43
MIC [4]: > 500 µM
MIC [5]: 125 µM (≈ 29.7 µg/mL)
MIC [6]: 500 µM (≈ 119 µg/mL)
MIC ([7]; 24h incubation, read-out: MIC EF): 500 µM
MIC [8]: 125 µM (≈ 29.7 µg/mL)
MIC [9]: 6.25 µg/mL (≈ 26.3 µM)
MIC [10]: 500 µM (≈ 119 µg/mL)
MIC ([11]; 24h incubation, read-out: MIC MRSA): 125 µM
MIC ([12]; 24h incubation, read-out: MIC SA): 62.5 µM
MIC ([13]; 24h incubation, read-out: MIC EC): 250 µM
MIC [14]: 3.13 µg/mL (≈ 13.2 µM)
MIC [15, 29]: < 3.91 µg/mL
MIC ([15]; recalculated from µg/mL, read-out: MICH37Ra): < 16.5 µM
MIC [16]: 3.91 µg/mL (≈ 16.5 µM)
MIC ([17]; 24h incubation, read-out: MIC SE): 125 µM
melting point: 149 to 153 °C
MIC [18]: 7.81 µg/mL (≈ 32.9 µM)
MIC [19]: 3.13 µg/mL (≈ 13.2 µM)
MIC [20]: 7.81 µg/mL (≈ 32.9 µM)
MIC ([21]; 24h incubation, read-out: MIC AB): 500 µM
MIC [22]: 125 µM (≈ 29.7 µg/mL)
MIC ([23]; 72h incubation, read-out: MIC PA): > 500 µM
MIC [24]: > 500 µM
MIC ([25]; resazurin after 72 h): 3.91 µg/mL (≈ 16.5 µM)

CC[C@@H](CO)NCCN[C@@H](CC)CO [EMB, ethambutol]
MIC [9]: 0.39 µg/mL (≈ 1.91 µM)
Concentration (susceptibility profile) [26]: 0.5 µg/mL
Susceptibility [26]: sensitive
MIC [14]: 1.56 µg/mL (≈ 7.64 µM)
MIC [19]: 1.56 µg/mL (≈ 7.64 µM)
Concentration (susceptibility profile) [27]: 0.5 µg/mL
Susceptibility [27]: sensitive

NNC(=O)c1ccncc1 [INH, isoniazid, reference compound]
MIC [9]: 0.39 µg/mL (≈ 2.84 µM)
MIC [14]: 12.5 µg/mL (≈ 91.1 µM)
MIC [15, 29]: 0.25 µg/mL
MIC [16]: 1000 µg/mL (≈ 7290 µM)
MIC [18]: 15.6 to 31.2 µg/mL (≈ 114 to 228 µM)
MIC [19]: 12.5 µg/mL (≈ 91.1 µM)
Susceptibility [27]: resistant
MIC [20]: 3.12 to 6.25 µg/mL (≈ 22.8 to 45.6 µM)
MIC ([25]; 72 h): 3.91 µg/mL (≈ 28.5 µM)

CO[C@H]1/C=C/O[C@@]2(C)Oc3c(C)c(O)c4c(O)c(c(/C=N/N5CCN(C)CC5)c(O)c4c3C2=O)NC(=O)/C(C)=C\C=C\[C@H](C)[C@H](O)[C@@H](C)[C@@H](O)[C@@H](C)[C@H](OC(C)=O)[C@@H]1C [RIF, rifampicin]
Concentration (susceptibility profile) [26]: > 8 µg/mL
Susceptibility [26]: resistant
MIC [18]: 12.5 µg/mL (≈ 15.2 µM)
Concentration (susceptibility profile) [27]: > 8 µg/mL
Susceptibility [27]: resistant
MIC [20]: 0.025 µg/mL (≈ 0.0304 µM)
MIC ([25]; resazurin after 72 h): 0.39 µg/mL (≈ 0.474 µM)

CNC(C)C1CCC(N)C(OC2C(N)CC(N)C(OC3OCC(C)(O)C(NC)C3O)C2O)O1 (centres unmarked) [gentamicin, reference compound]
MIC ([28]; 95% growth inhibition, 530 nm, read-out: MIC (spectrophotometric detection)): 0.5 µg/mL (≈ 1.05 µM)
MIC ([28]; naked eye, read-out: MIC (visual detection)): 0.5 µg/mL (≈ 1.05 µM)
MIC [7, 30]: > 8 µg/mL
MIC [7, 31]: > 8 µg/mL
MIC [11, 30]: > 8 µg/mL
MIC [11, 31]: > 8 µg/mL
MIC [12, 30]: 1 µg/mL
MIC [12, 31]: 0.5 µg/mL
MIC [13, 30]: 1 µg/mL
MIC [13, 31]: 1 µg/mL
MIC [17, 30]: 0.0625 µg/mL
MIC [17, 31]: 0.0625 µg/mL
MIC [21, 30]: 8 µg/mL
MIC [21, 31]: 8 µg/mL
MIC [23, 30]: 0.5 µg/mL
MIC [23, 31]: 0.5 µg/mL
